According to patent US12077503B2, “Substituted cyclic amides and their use as herbicides” (FMC CORPORATION, priority 2015, dated 2024):

How the values were obtained:
Type in all cases: in vivo
[1] = system: barnyardgrass (Echinochloa crus-galli); test: Test G Pre-Emergence Protocol; settings: Echinochloa crus-galli, pre-emergence, 312 h, evaluated after 13 days; for pest or weed control at 15.625 g/ha: 15.625 g ai/ha, read-out: Barnyard grass damage rating (100=total damage to plant; 0=no damage to plant); for pest or weed control at 62.5 g/ha: 62.5 g ai/ha, 100=total damage to plant, 0=no damage to plant, read-out: plant damage rating, Barnyardgrass; for pest or weed control at 250 g/ha: 250 g ai/ha, read-out: Barnyardgrass damage rating (100=total damage to plant; 0=no damage to plant)
Method in brief: (§1)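 One day after sowing, pots are treated with a spray of test compound formulated in acetone/water 50:50 plus 0.5% Tween 20, giving 15.625, 62.5 or 250 g/ha. Evaluation on a 0–100 damage scale follows 13 days of glasshouse growth.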

[2] = system: velvetleaf (Abutilon theophrasti); test: Test G Pre-Emergence Protocol; settings: Abutilon theophrasti, pre-emergence, 312 h, evaluated after 13 days; for pest or weed control at 15.625 g/ha: 15.625 g ai/ha; for pest or weed control at 15.625 g/ha / pest or weed control at 250 g/ha: read-out: Velvetleaf damage rating (100=total damage to plant; 0=no damage to plant); for pest or weed control at 62.5 g/ha: 62.5 g ai/ha, 100=total damage to plant, 0=no damage to plant, read-out: plant damage rating, Velvetleaf; for pest or weed control at 250 g/ha: 250 g ai/ha
Method in brief: as §1

[3] = system: redroot pigweed (Amaranthus retroflexus); test: Test G Pre-Emergence Protocol; settings: Amaranthus retroflexus, pre-emergence, 312 h, evaluated after 13 days; for pest or weed control at 15.625 g/ha: 15.625 g ai/ha; for pest or weed control at 15.625 g/ha / pest or weed control at 250 g/ha: read-out: Pigweed, Redroot damage rating (100=total damage to plant; 0=no damage to plant); for pest or weed control at 62.5 g/ha: 62.5 g ai/ha, 100=total damage to plant, 0=no damage to plant, read-out: plant damage rating, Pigweed, Redroot; for pest or weed control at 250 g/ha: 250 g ai/ha
Method in brief: as §1

[4] = system: giant foxtail (Setaria faberi); test: Test G Pre-Emergence Protocol; settings: Setaria faberi, pre-emergence, 312 h, evaluated after 13 days; for pest or weed control at 15.625 g/ha: 15.625 g ai/ha; for pest or weed control at 15.625 g/ha / pest or weed control at 250 g/ha: read-out: Foxtail, Giant damage rating (100=total damage to plant; 0=no damage to plant); for pest or weed control at 62.5 g/ha: 62.5 g ai/ha, 100=total damage to plant, 0=no damage to plant, read-out: plant damage rating, Foxtail, Giant; for pest or weed control at 250 g/ha: 250 g ai/ha
Method in brief: as §1

[5] = system: ivy-leaved morning glory (Ipomoea hederacea); test: Test G Pre-Emergence Protocol; settings: Ipomoea, pre-emergence, 312 h, evaluated after 13 days; for pest or weed control at 15.625 g/ha: 15.625 g ai/ha, read-out: Morning-glory, Ivy-leaved damage rating (100=total damage to plant; 0=no damage to plant); for pest or weed control at 62.5 g/ha: 62.5 g ai/ha, 100=total damage to plant, 0=no damage to plant, read-out: plant damage rating, Morningglory, Ivy-leaved; for pest or weed control at 250 g/ha: 250 g ai/ha, read-out: Morningglory, Ivy-leaved damage rating (100=total damage to plant; 0=no damage to plant)
Method in brief: as §1

corn (Zea mays) [6] = test: Test G Pre-Emergence Protocol; settings: Zea mays, pre-emergence, 312 h, evaluated after 13 days; for plant injury at 15.625 g/ha: 15.625 g ai/ha; for plant injury at 15.625 g/ha / plant injury at 250 g/ha: read-out: Corn damage rating (100=total damage to plant; 0=no damage to plant); for plant injury at 62.5 g/ha: 62.5 g ai/ha, 100=total damage to plant, 0=no damage to plant, read-out: plant damage rating, Corn; for plant injury at 250 g/ha: 250 g ai/ha
Method in brief: as §1

[7] = system: barnyardgrass (Echinochloa crus-galli); test: Test G Post-Emergence Protocol; settings: Echinochloa crus-galli, post-emergence, 312 h; for pest or weed control at 15.625 g/ha: 15.625 g ai/ha, evaluated after 13 days (100=total damage to plant; 0=no damage to plant), read-out: Barnyardgrass damage rating; for pest or weed control at 62.5 g/ha: 62.5 g ai/ha, read-out: Barnyardgrass damage rating (100=total damage to plant; 0=no damage to plant); for pest or weed control at 62.5 g/ha / pest or weed control at 250 g/ha: evaluated after 13 days; for pest or weed control at 250 g/ha: 250 g ai/ha, read-out: damage to plant, Barnyardgrass (100=total damage to plant; 0=no damage to plant)
Method in brief: (§2)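 Eight days post-sowing, plants received a spray of test compound (acetone/water 50:50, 0.5% Tween 20) at 15.625, 62.5 or 250 g/ha. Glasshouse regime thereafter: 24/16 °C, 14 h light, 65% humidity. Assessment after 13 days on a 0–100 damage scale.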

[8] = system: velvetleaf (Abutilon theophrasti); test: Test G Post-Emergence Protocol; settings: Abutilon theophrasti, post-emergence, 312 h; for pest or weed control at 15.625 g/ha: 15.625 g ai/ha, evaluated after 13 days (100=total damage to plant; 0=no damage to plant), read-out: Velvetleaf damage rating; for pest or weed control at 62.5 g/ha: 62.5 g ai/ha, read-out: Velvetleaf damage rating (100=total damage to plant; 0=no damage to plant); for pest or weed control at 62.5 g/ha / pest or weed control at 250 g/ha: evaluated after 13 days; for pest or weed control at 250 g/ha: 250 g ai/ha, read-out: damage to plant, Velvetleaf (100=total damage to plant; 0=no damage to plant)
Method in brief: as §2

[9] = system: redroot pigweed (Amaranthus retroflexus); test: Test G Post-Emergence Protocol; settings: Amaranthus retroflexus, post-emergence, 312 h; for pest or weed control at 15.625 g/ha: 15.625 g ai/ha, evaluated after 13 days (100=total damage to plant; 0=no damage to plant), read-out: Pigweed, Redroot damage rating; for pest or weed control at 62.5 g/ha: 62.5 g ai/ha, read-out: Pigweed, Redroot damage rating (100=total damage to plant; 0=no damage to plant); for pest or weed control at 62.5 g/ha / pest or weed control at 250 g/ha: evaluated after 13 days; for pest or weed control at 250 g/ha: 250 g ai/ha, read-out: damage to plant, Pigweed, Redroot (100=total damage to plant; 0=no damage to plant)
Method in brief: as §2

[10] = system: giant foxtail (Setaria faberi); test: Test G Post-Emergence Protocol; settings: Setaria faberi, post-emergence, 312 h; for pest or weed control at 15.625 g/ha: 15.625 g ai/ha, evaluated after 13 days (100=total damage to plant; 0=no damage to plant), read-out: Foxtail, Giant damage rating; for pest or weed control at 62.5 g/ha: 62.5 g ai/ha, read-out: Foxtail, Giant damage rating (100=total damage to plant; 0=no damage to plant); for pest or weed control at 62.5 g/ha / pest or weed control at 250 g/ha: evaluated after 13 days; for pest or weed control at 250 g/ha: 250 g ai/ha, read-out: damage to plant, Foxtail, Giant (100=total damage to plant; 0=no damage to plant)
Method in brief: as §2

[11] = system: ivy-leaved morning glory (Ipomoea hederacea); test: Test G Post-Emergence Protocol; settings: Ipomoea, post-emergence, 312 h; for pest or weed control at 15.625 g/ha: 15.625 g ai/ha, evaluated after 13 days (100=total damage to plant; 0=no damage to plant), read-out: Morningglory, Ivy-leaved damage rating; for pest or weed control at 62.5 g/ha: 62.5 g ai/ha, read-out: Morningglory, Ivy-leaved damage rating (100=total damage to plant; 0=no damage to plant); for pest or weed control at 62.5 g/ha / pest or weed control at 250 g/ha: evaluated after 13 days; for pest or weed control at 250 g/ha: 250 g ai/ha, read-out: damage to plant, Morningglory, Ivy-leaved (100=total damage to plant; 0=no damage to plant)
Method in brief: as §2

corn (Zea mays) [12] = test: Test G Post-Emergence Protocol; settings: Zea mays, post-emergence, 312 h; for plant injury at 15.625 g/ha: 15.625 g ai/ha, evaluated after 13 days (100=total damage to plant; 0=no damage to plant), read-out: Corn damage rating; for plant injury at 62.5 g/ha: 62.5 g ai/ha, read-out: Corn damage rating (100=total damage to plant; 0=no damage to plant); for plant injury at 62.5 g/ha / plant injury at 250 g/ha: evaluated after 13 days; for plant injury at 250 g/ha: 250 g ai/ha, read-out: damage to plant, Corn (100=total damage to plant; 0=no damage to plant)
Method in brief: as §2

Structure (SMILES): COc1cccc(NC(=O)[C@H]2C(=O)N(C)C[C@@H]2c2ccc(C(F)(F)F)cc2)c1C (racemic) [Compound 1446]
- pest or weed control at 15.625 g/ha [1]: 0%
- pest or weed control at 62.5 g/ha [1]: 0%
- pest or weed control at 250 g/ha [1]: 0%
- pest or weed control at 15.625 g/ha [2]: 0%
- pest or weed control at 62.5 g/ha [2]: 0%
- pest or weed control at 250 g/ha [2]: 0%
- pest or weed control at 15.625 g/ha [3]: 0%
- pest or weed control at 62.5 g/ha [3]: 0%
- pest or weed control at 250 g/ha [3]: 0%
- pest or weed control at 15.625 g/ha [4]: 0%
- pest or weed control at 62.5 g/ha [4]: 0%
- pest or weed control at 250 g/ha [4]: 40%
- pest or weed control at 15.625 g/ha [5]: 0%
- pest or weed control at 62.5 g/ha [5]: 0%
- pest or weed control at 250 g/ha [5]: 0%
- plant injury at 15.625 g/ha (corn (Zea mays) [6]): 0%
- plant injury at 62.5 g/ha (corn (Zea mays) [6]): 0%
- plant injury at 250 g/ha (corn (Zea mays) [6]): 0%
- pest or weed control at 15.625 g/ha [7]: 0%
- pest or weed control at 62.5 g/ha [7]: 0%
- pest or weed control at 250 g/ha [7]: 0%
- pest or weed control at 15.625 g/ha [8]: 0%
- pest or weed control at 62.5 g/ha [8]: 0%
- pest or weed control at 250 g/ha [8]: 0%
- pest or weed control at 15.625 g/ha [9]: 0%
- pest or weed control at 62.5 g/ha [9]: 0%
- pest or weed control at 250 g/ha [9]: 0%
- pest or weed control at 15.625 g/ha [10]: 0%
- pest or weed control at 62.5 g/ha [10]: 0%
- pest or weed control at 250 g/ha [10]: 0%
- pest or weed control at 15.625 g/ha [11]: 0%
- pest or weed control at 62.5 g/ha [11]: 0%
- pest or weed control at 250 g/ha [11]: 0%
- plant injury at 15.625 g/ha (corn (Zea mays) [12]): 0%
- plant injury at 62.5 g/ha (corn (Zea mays) [12]): 0%
- plant injury at 250 g/ha (corn (Zea mays) [12]): 0%

Structure (SMILES): CN1C[C@@H](c2ccc(C(F)(F)F)cc2)[C@H](C(=O)Nc2nnc(C(F)(F)F)[nH]2)C1=O (racemic) [Compound 1550]
- pest or weed control at 15.625 g/ha [1]: 0%
- pest or weed control at 62.5 g/ha [1]: 0%
- pest or weed control at 250 g/ha [1]: 0%
- pest or weed control at 15.625 g/ha [2]: 0%
- pest or weed control at 62.5 g/ha [2]: 0%
- pest or weed control at 250 g/ha [2]: 0%
- pest or weed control at 15.625 g/ha [3]: 0%
- pest or weed control at 62.5 g/ha [3]: 0%
- pest or weed control at 250 g/ha [3]: 0%
- pest or weed control at 15.625 g/ha [4]: 0%
- pest or weed control at 62.5 g/ha [4]: 0%
- pest or weed control at 250 g/ha [4]: 0%
- pest or weed control at 15.625 g/ha [5]: 0%
- pest or weed control at 62.5 g/ha [5]: 0%
- pest or weed control at 250 g/ha [5]: 0%
- plant injury at 15.625 g/ha (corn (Zea mays) [6]): 0%
- plant injury at 62.5 g/ha (corn (Zea mays) [6]): 0%
- plant injury at 250 g/ha (corn (Zea mays) [6]): 0%
- pest or weed control at 15.625 g/ha [7]: 0%
- pest or weed control at 62.5 g/ha [7]: 0%
- pest or weed control at 250 g/ha [7]: 0%
- pest or weed control at 15.625 g/ha [8]: 0%
- pest or weed control at 62.5 g/ha [8]: 0%
- pest or weed control at 250 g/ha [8]: 0%
- pest or weed control at 15.625 g/ha [9]: 0%
- pest or weed control at 62.5 g/ha [9]: 30%
- pest or weed control at 250 g/ha [9]: 40%
- pest or weed control at 15.625 g/ha [10]: 0%
- pest or weed control at 62.5 g/ha [10]: 0%
- pest or weed control at 250 g/ha [10]: 0%
- pest or weed control at 15.625 g/ha [11]: 0%
- pest or weed control at 62.5 g/ha [11]: 0%
- pest or weed control at 250 g/ha [11]: 0%
- plant injury at 15.625 g/ha (corn (Zea mays) [12]): 0%
- plant injury at 62.5 g/ha (corn (Zea mays) [12]): 10%
- plant injury at 250 g/ha (corn (Zea mays) [12]): 30%
